Assay [1] has as its system MDA-MB-231. Description: MTS assay cell viability, MDA-MB-231. It is filed as cell-based. The conditions noted are these: Homo sapiens, read-out: IC50 values according to the cell viability inhibition. How it is done:
MDA-MB-231 (Cell seeding numbers: 0.8(M231) x 10^4 cells/wells (confluency ≧ 25%), which is a human triple-negative breast cancer (TNBC) cell line, and JIMT-1 (Cell seeding numbers: 0.8(JIMT) x 10^4 cells/wells (confluency ≧ 25%)), which is a HER2 positive breast cancer (HER2+ BC) cell line, were used in the experiment.
The above cell lines were cultured in Dulbecco's modified Eagle's medium (DMEM) containing 10% fetal bovine serum (FBS), streptomycin-penicillin (100 U/mL), and Fungizone (0.625 µg/mL) at 5% CO2 and 37°C.
(§1) The human breast cancer cell lines MDA-MB-231 and JIMT-1 were treated with chromene-benzimidazole derivatives of Formulas 1-1 to 1-53 at various concentrations of 0, 1, and 5 µM, respectively, for 72 hours, and then cell viability was measured using the MTS assay technique. In the MTS assay, cells were attached to a 96-well plate for 24 hours, treated with the chromene-benzimidazole derivative for 72 hours, developed with MTS (3-(4,5-dimethylthiazol-2-yl)-5-(3-carboxymethoxyphenyl)-2-(4-sulfophenyl)-2H-tetrazolium) for 4 hours, and then the absorbance was measured at 490 nm using a Spectramax Plus384 microplate analyzer.
(§2) After treating the triple-negative breast cancer cell lines MDA-MB-231 and BT549 with the chromene-benzimidazole derivative Compound (1-1) by concentration (0, 0.01, 0.05, 0.1, 0.5, 1, 5, 10, 20, and 40 µM) for 72 hours, concentration-dependent cell viability (MTS assay) inhibition and IC50 values according to the cell viability inhibition were confirmed and shown in FIGS. 7A and 7B.
The […] MDA-MB-231 and […] were treated with the chromene-benzimidazole derivative compounds (1-13, 1-19, and 1-22) by concentration (0, 0.01, 0.05, 0.1, 0.25, 0.5, 1, 2, and 5 µM) for 72 hours. Detailed treatment conditions were the same as disclosed in Example 2.1. Concentration-dependent cell viability (MTS assay) inhibition and IC50 values according to the cell viability inhibition were confirmed and shown in FIG. 9.
After treating the triple-negative breast cancer cell line MDA-MB-231 with the chromene-benzimidazole derivative compounds (1-9, 1-10, 1-11, 1-15, 1-16, and 1-17) by concentration (0, 0.01, 0.05, 0.1, 0.25, 0.5, 1, 2, and 5 µM) for 72 hours, concentration-dependent cell viability (MTS assay) inhibition and IC50 values according to the cell viability inhibition were confirmed and shown in FIG. 13. […]

Assay [2] deals with BT549. Nature of the assay: MTS assay cell viability, BT549. The assay is classed as cell-based. The conditions noted are these: Homo sapiens, BT-549, 72 hours, read-out: IC50 values according to the cell viability inhibition. How it is done:
as §1, §2
(In general: Formazan colour is commonly taken as a measure of viable cells.)

The test system of assay [3] is MDA-MB-231. Nature of the assay: Morphological changes of cells by optical microscope, MDA-MB-231. The assay is classed as cell-based, human. The note with it: 72 hours; for morphological changes of cells: 0.5 µM. Here is the method:
(§3) After treating the MDA-MB-231 and BT549 cell lines with the 1-1 compound by concentration (0, 5, 10, and 20 µM) for 72 hours, morphological changes of cells were observed using an optical microscope, which is shown in FIG. 7C.
Subsequently, an experiment was performed as follows to confirm the targeting ability for Compounds 1-13 and 1-22. After treating the MDA-MB-231 cell line with the 1-22 and 1-13 compounds at a concentration of 0.5 µM for 72 hours, morphological changes of cells were observed using an optical microscope, and micrographs are shown in FIG. 10A. […] In addition, after treating MDA-MB-231 with the 1-22 and 1-13 compounds at a concentration of 0.5 µM for 72 hours, expression of HSP90 chaperon complexes (HSP90, HSP70, HSP27, HSF-1), HSP90 client proteins (EGFR, AKT, JAK2, STAT3), Tubulin targeting ability (Tubulin, mitosis marker p-His H3), and apoptosis-related factors (Cleaved caspase-7, Survivin, Mcl-1) proteins was confirmed using a Western blot technique, which is shown in FIG. 10B.

Assay [4] concerns BT549. Description: Morphological changes of cells by optical microscope, BT549. It is filed as cell-based. The note with it: 0, 5, 10, and 20 µM, 72 hours. Here is the method: as §3
Assay [5] deals with MDA-MB-231. Nature of the assay: Annexin V/PI staining flow cytometry, MDA-MB-231. It is filed as cell-based, human. The text has this: (§4) The degree of apoptosis of MDA-MB-231 and BT549 cells by the compound of Formula 1-1 was confirmed by a flow cytometer through Annexin V/PI staining, which is shown in FIG. 7D.
Background: A flow cytometer gives signals particle by particle.

For assay [6], the system named is BT549. Nature of the assay: Annexin V/PI staining flow cytometry, BT549. The assay is classed as cell-based.
Description: as §4

For assay [7], the system named is C-terminal domain of Hsp90. Description: Hsp90 C-terminal activity by binding analysis with C recombinant protein. The conditions noted are these: compared to Novobiocin. From the text: In order to evaluate the ability to inhibit the C-terminal domain of Hsp90, it was attempted to evaluate the ability to inhibit Hsp90 C-terminal activity through analysis of binding force between the 1-1 compound, a C-terminal Hsp90 inhibitor Novobiocin, and an N-terminal inhibitor Onalespib, and a C recombinant protein.

Assay [8] relates to STAT3, c-MET, ERK, and AKT. Description: Western blot of HSP90 client proteins in MDA-MB-231. The assay is classed as cell-based, human. The note with it: 0, 5, 10, and 20 µM, 72 hours.
The subject of assay [9] is tubulin. Nature of the assay: Western blot of tubulin and apoptosis-related proteins in MDA-MB-231. It is filed as cell-based, human. The note with it: 0, 5, 10, and 20 µM, 72 hours. How it is done: Subsequently, after treating the MDA-MB-231 cell line with the compound of Formula 1-1 by concentration (0, 5, 10, and 20 µM) for 72 hours, degradation of tubulin and expression of apoptosis-related proteins were confirmed by Western blot, which is shown in FIG. 8C.

The test system of assay [10] is BT549. Description: Propidium iodide DNA content flow cytometry (cell cycle), BT549. The note with it: 0, 5, 10, and 20 µM, 72 hours. It is filed as cell-based.
Assay [11] deals with hematologic cancer cell line HL-60. Nature of the assay: MTS assay cell viability, HL-60. The assay is classed as cell-based. The conditions noted are these: 0, 0.1, 0.5, 1, 5, and 10 µM, 72 hours. How it is done: (§5) After treating a hematologic cancer cell line HL-60, a liver cancer cell line HepG2, a lung cancer cell line H1299, a colorectal cancer cell line HCT116, and an ovarian cancer cell line SKOV3 with the chromene-benzimidazole derivative compound 1-22 by concentration (0, 0.1, 0.5, 1, 5, and 10 µM) for 72 hours, concentration-dependent cell viability (MTS assay) inhibition and IC50 values according to the cell viability inhibition were confirmed and shown in FIG. 11.

The subject of assay [12] is liver cancer cell line HepG2. Description: MTS assay cell viability, HepG2. It is filed as cell-based. The note with it: 0, 0.1, 0.5, 1, 5, and 10 µM, 72 hours. Here is the method:
as §5

Assay [13] concerns lung cancer cell line H1299. Description: MTS assay cell viability, H1299. The assay is classed as cell-based. The conditions noted are these: 0, 0.1, 0.5, 1, 5, and 10 µM, 72 hours. Here is the method: as §5
For assay [14], the system named is colorectal cancer cell line HCT116. Description: MTS assay cell viability, HCT116. The conditions noted are these: 0, 0.1, 0.5, 1, 5, and 10 µM, 72 hours. The assay is classed as cell-based. How it is done: as §5
Assay [15] deals with ovarian cancer cell line SKOV3. Description: MTS assay cell viability, SKOV3. The assay is classed as cell-based. The note with it: 0, 0.1, 0.5, 1, 5, and 10 µM, 72 hours. Here is the method: as §5
Where [16] appears, read: MDA-MB-231 and JIMT-1 treated, cell line of the values not given, 72 hours.

Structures are written as SMILES. Like-named read-outs stand apart in the source and are kept apart here.

`COc1c(NC(=O)Nc2ccc3[nH]c(Cl)nc3c2)ccc2c1C=CC(C)(C)O2` [Compound 1-1, 1-(2-chloro-1H-benzo[d]imidazol-5-yl)-3-(5-methoxy-2,2-dimethyl-2H-chromen-6-yl)urea]: the IC50 (commonly the concentration at which inhibition is half-maximal) in [1] (MDA-MB-231, 72 hours) stood at 5660 nM; in [2], 8490 nM. For the same compound, the “morphological changes of cells (apoptosis)” value is “apoptosis was induced in a concentration-dependent manner” in assay [3] (0, 5, 10, and 20 µM); “apoptosis was induced in a concentration-dependent manner” in assay [4]. Besides, the degree of apoptosis result in assay [5] is “early and late apoptosis were induced”; in assay [6], “early and late apoptosis were induced”. Further, the “C-terminal HSP90 activity” value in [7] is “lowered C-terminal HSP90 activity to less than half compared to the existing Novobiocin”. The “protein expression and phosphorylation of HSP90 client proteins” value in assay [8] was “decreases in protein expression and phosphorylation of STAT3, c-MET, ERK, and AKT”. In assay [9], the “degradation of tubulin / tubulin polymerization reaction” value is recorded as “could inhibit a tubulin polymerization reaction”. In assay [10], the “cell cycle (DNA content)” value is recorded as “G2/M phase cell cycle arrest”.
On to `COc1c(NC(=O)Nc2ccc3[nH]c(-c4ccc(F)cc4)nc3c2)ccc2c1C=CC(C)(C)O2` [Compound 1-9, 1-(2-(4-fluorophenyl)-1H-benzo[d]imidazol-5-yl)-3-(5-methoxy-2,2-dimethyl-2H-chromen-6-yl)urea], for which, in assay [1] (MDA-MB-231, 72 hours), the IC50 turned out to be 273 nM.
Still for that read-out and setting: for `COc1c(NC(=O)Nc2ccc3[nH]c(-c4cccc(F)c4)nc3c2)ccc2c1C=CC(C)(C)O2` [Compound 1-10, 1-(2-(3-fluorophenyl)-1H-benzo[d]imidazol-5-yl)-3-(5-methoxy-2,2-dimethyl-2H-chromen-6-yl)urea] the value was 829 nM; for `COc1c(NC(=O)Nc2ccc3[nH]c(-c4ccc(Cl)cc4)nc3c2)ccc2c1C=CC(C)(C)O2` [Compound 1-11, 1-(2-(4-chlorophenyl)-1H-benzo[d]imidazol-5-yl)-3-(5-methoxy-2,2-dimethyl-2H-chromen-6-yl)urea], 335 nM.
With `COc1c(NC(=O)Nc2ccc3[nH]c(-c4ccc(C#N)cc4)nc3c2)ccc2c1C=CC(C)(C)O2` [Compound 1-13, 1-(2-(4-cyanophenyl)-1H-benzo[d]imidazol-5-yl)-3-(5-methoxy-2,2-dimethyl-2H-chromen-6-yl)urea], the IC50 in assay [1] (setting [16]) was 154 nM. Also, the “morphological changes of cells” value in [3] is “Typical morphological changes of cell cycle arrest and apoptosis”. In addition, the cell viability inhibition entry in [11], in [12], in assay [13], in assay [14] and in [15] was “effective cell viability inhibition” each time.
On to `COc1ccc(-c2nc3cc(NC(=O)Nc4ccc5c(c4OC)C=CC(C)(C)O5)ccc3[nH]2)cn1` [Compound 1-15, 1-(5-methoxy-2,2-dimethyl-2H-chromen-6-yl)-3-(2-(6-methoxypyridin-3-yl)-1H-benzo[d]imidazol-5-yl)urea], for which the IC50 in assay [1] (MDA-MB-231, 72 hours) was determined as 452 nM.
Same read-out and setting: for `COc1c(NC(=O)Nc2ccc3[nH]c(-c4ccc(N(C)C)cc4)nc3c2)ccc2c1C=CC(C)(C)O2` [Compound 1-16, 1-(2-(4-(dimethylamino)phenyl)-1H-benzo[d]imidazol-5-yl)-3-(5-methoxy-2,2-dimethyl-2H-chromen-6-yl)urea] the value was 960 nM.
Consider `COc1cc(-c2nc3cc(NC(=O)Nc4ccc5c(c4OC)C=CC(C)(C)O5)ccc3[nH]2)cc(OC)c1OC` [Compound 1-17, 1-(5-methoxy-2,2-dimethyl-2H-chromen-6-yl)-3-(2-(3,4,5-trimethoxyphenyl)-1H-benzo[d]imidazol-5-yl)urea], for which the IC50 in assay [1] (MDA-MB-231, 72 hours) was found to be 586 nM.
On to `COc1c(NC(=O)Nc2ccc3[nH]c(-c4ccc(F)cc4F)nc3c2)ccc2c1C=CC(C)(C)O2` [Compound 1-19, 1-(2-(2,4-difluorophenyl)-1H-benzo[d]imidazol-5-yl)-3-(5-methoxy-2,2-dimethyl-2H-chromen-6-yl)urea], for which the concentration for half-maximal inhibition (IC50) in assay [1] (setting [16]) turned out to be 1060 nM.
Consider `COc1c(NC(=O)Nc2ccc3[nH]c(-c4ccc(C)cc4)nc3c2)ccc2c1C=CC(C)(C)O2` [Compound 1-22, 1-(5-methoxy-2,2-dimethyl-2H-chromen-6-yl)-3-(2-(p-tolyl)-1H-benzo[d]imidazol-5-yl)urea], for which the IC50 in assay [1] (setting [16]) stood at 276 nM. In assay [3], the “morphological changes of cells” value was “Typical morphological changes of cell cycle arrest and apoptosis”. The cell viability inhibition result in [11], in assay [12], in assay [13], in assay [14] and in assay [15] was “effective cell viability inhibition” throughout.

The values above are taken from patent publication EP4733300A1, “NOVEL CHROMENE-BENZIMIDAZOLE DERIVATIVE OR PHARMACEUTICALLY ACCEPTABLE SALT THEREOF, AND USE THEREOF” (Korea University Research and Business Foundation, priority 2023, dated 2024).
